Measured values taken from patent publication US20230293495A1, “PHARMACEUTICAL FORMULATIONS FOR TREATING DISEASES MEDIATED BY KDM1A” (Imago Biosciences, Inc., priority 2020, published 2023).

Assays:
[1] = Excipient compatibility study: binary mixtures of Compound B and excipient in open vials, assay and related substances (RS); type: physicochemical; details: for RS-1 (related substance): in %; for Total related substances: in % (unit assumed)
Description: Commonly used excipients for oral solid dosage formulations were evaluated for this study including fillers, binders, disintegrants, glidants, lubricants and organic acid stabilizers.
Briefly, each excipient and API were individually weighed and filled in vials, followed by the addition of glass beads. The samples were closed, vortexed, and refrigerated at 2 to 8° C. prior to initiation of study as the sample preparation was executed over a period of 10 days. All vials were removed from the refrigerator and allowed to equilibrate to room temperature, then opened, and stored at the designated storage conditions at the same t=0.

KDM1A = KDM1A (Homo sapiens, UniProt O60341); test: Inhibition of KDM1A; type: biochemical

| SMILES | % LC (assay) ([1]; 1 week, 50° C./11% RH) | RS-1 (related substance) ([1]; 1 week, 50° C./11% RH) | Total related substances ([1]; 1 week, 50° C./11% RH) | % LC (assay) ([1]; 1 week, 50° C./75% RH) | Related substance RRT 1.081 ([1]; 1 week, 50° C./75% RH) | RS-1 (related substance) ([1]; 1 week, 50° C./75% RH) | Total related substances ([1]; 1 week, 50° C./75% RH) | % LC (assay) ([1]; 2 weeks, 50° C./11% RH) | RS-1 (related substance) ([1]; 2 weeks, 50° C./11% RH) | Total related substances ([1]; 2 weeks, 50° C./11% RH) | % LC (assay) ([1]; 2 weeks, 50° C./75% RH) | Related substance RRT 1.081 ([1]; 2 weeks, 50° C./75% RH) | RS-1 (related substance) ([1]; 2 weeks, 50° C./75% RH) | Total related substances ([1]; 2 weeks, 50° C./75% RH) | % LC (assay) ([1]; week 0) | Related substance RRT 1.081 ([1]; week 0) | RS-1 (related substance) ([1]; week 0) | Total related substances ([1]; week 0) | Inhibition of KDM1A, in words (KDM1A) |
| --- | --- | --- | --- | --- | --- | --- | --- | --- | --- | --- | --- | --- | --- | --- | --- | --- | --- | --- | --- |
| CN1CCN(C(=O)[C@H](CCCN[C@@H]2C[C@H]2c2ccc(F)cc2)NC(=O)c2ccc(-n3ccnn3)cc2)CC1.Cc1ccc(S(=O)(=O)O)cc1 [Compound B, N—((S)-5-((1R,2S)-2-(4-fluorophenyl)cyclopropylamino)-1-(4-methylpiperazin-1-yl)-1-oxopentan-2-yl)-4-(1H-1,2,3-triazol-1-yl)benzamide ditosylate] | 98.824 % LC | 0.1652 | 0.2245 | 102.663 % LC | 0.0649% | 0.1453 | 0.2102 | 100.211 % LC | 0.3516 | 0.4595 | 101.800 % LC | 0.0715% | 0.3545 | 0.4260 | 102.973 % LC | 0.0589% | 0.0935 | 0.1525 | has shown activity for the inhibition of KDM1A |
| CN1CCN(C(=O)[C@H](CCCN[C@@H]2C[C@H]2c2ccc(F)cc2)NC(=O)c2ccc(-n3ccnn3)cc2)CC1 [Compound A, N—((S)-5-((1R,2S)-2-(4-fluorophenyl)cyclopropylamino)-1-(4-methylpiperazin-1-yl)-1-oxopentan-2-yl)-4-(1H-1,2,3-triazol-1-yl)benzamide] | – | – | – | – | – | – | – | – | – | – | – | – | – | – | – | – | – | – | has shown activity for the inhibition of KDM1A |
